Measured values as given in PubChem BioAssay AID1963837 (Molecular Pharmacology Branch, DTP, NCI, 2024).

System: 843126-344-R-J1-PDC complex spheroid viability
Test: Anticancer human tumor 843126-344-R-J1-PDC patient-derived melanoma cell line growth inhibition [POLQ]
Details: for IC50: curve of first compound; for viability, T/C: stronger effect = lower value
Procedure, shortened: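 Three-cell-type spheroids modelling solid tumor plus stroma served as the readout system; POL inhibitors were tested individually and in combination, concentration ranges set by clinical Cmax where known.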

[1] = second compound 0.0316 µM, first compound 0.0316 µM
[2] = second compound 0.0316 µM, first compound 0.1 µM
[3] = second compound 0.0316 µM, first compound 0.316 µM
[4] = second compound 0.0316 µM, first compound 1 µM
[5] = second compound 0.0316 µM, first compound 3.16 µM
[6] = second compound 0.0316 µM, first compound 10 µM
[7] = second compound 0.1 µM, first compound 0.0316 µM
[8] = second compound 0.1 µM, first compound 0.1 µM
[9] = second compound 0.1 µM, first compound 0.316 µM
[10] = second compound 0.1 µM, first compound 1 µM
[11] = second compound 0.1 µM, first compound 3.16 µM
[12] = second compound 0.1 µM, first compound 10 µM
[13] = second compound 0.316 µM, first compound 0.0316 µM
[14] = second compound 0.316 µM, first compound 0.1 µM
[15] = second compound 0.316 µM, first compound 0.316 µM
[16] = second compound 0.316 µM, first compound 1 µM
[17] = second compound 0.316 µM, first compound 3.16 µM
[18] = second compound 0.316 µM, first compound 10 µM
[19] = second compound 1 µM, first compound 0.0316 µM
[20] = second compound 1 µM, first compound 0.1 µM
[21] = second compound 1 µM, first compound 0.316 µM
[22] = second compound 1 µM, first compound 1 µM
[23] = second compound 1 µM, first compound 3.16 µM
[24] = second compound 1 µM, first compound 10 µM
[25] = second compound 3.16 µM, first compound 0.0316 µM
[26] = second compound 3.16 µM, first compound 0.1 µM
[27] = second compound 3.16 µM, first compound 0.316 µM
[28] = second compound 3.16 µM, first compound 1 µM
[29] = second compound 3.16 µM, first compound 3.16 µM
[30] = second compound 3.16 µM, first compound 10 µM
[31] = second compound 10 µM, first compound 0.0316 µM
[32] = second compound 10 µM, first compound 0.1 µM
[33] = second compound 10 µM, first compound 0.316 µM
[34] = second compound 10 µM, first compound 1 µM
[35] = second compound 10 µM, first compound 3.16 µM
[36] = second compound 10 µM, first compound 10 µM
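Wherever viability, T/C is given: spheroids exposed to drugs for seven days before readout.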

CCc1cc2c(N3CCc4c(cc(Cn5ccnc5)cc4-c4cn(C)nc4C(F)(F)F)C3=O)cc(C)nc2c(OC)n1 + Cc1cccc(N(C)C(=O)C2C(O)CCN2c2nc(C)cc(C(F)(F)F)c2C#N)c1
IC50 (second compound 0.0316 µM): > 10 µM | IC50 (second compound 0.1 µM): > 10 µM | IC50 (second compound 0.316 µM): > 10 µM | IC50 (second compound 1 µM): > 10 µM | IC50 (second compound 3.16 µM): > 10 µM | IC50 (second compound 10 µM): > 10 µM | viability, T/C [1]: 90.8% | viability, T/C [2]: 92.8% | viability, T/C [3]: 80.9% | viability, T/C [4]: 77.7% | viability, T/C [5]: 72.4% | viability, T/C [6]: 61.9% | viability, T/C [7]: 99% | viability, T/C [8]: 88.5% | viability, T/C [9]: 79% | viability, T/C [10]: 79.9% | viability, T/C [11]: 71.5% | viability, T/C [12]: 64.1% | viability, T/C [13]: 94.3% | viability, T/C [14]: 93.2% | viability, T/C [15]: 82.4% | viability, T/C [16]: 72.3% | viability, T/C [17]: 69.8% | viability, T/C [18]: 62.3% | viability, T/C [19]: 85.4% | viability, T/C [20]: 89.5% | viability, T/C [21]: 77.3% | viability, T/C [22]: 70% | viability, T/C [23]: 75.5% | viability, T/C [24]: 63.8% | viability, T/C [25]: 90.8% | viability, T/C [26]: 86% | viability, T/C [27]: 87.7% | viability, T/C [28]: 70.9% | viability, T/C [29]: 77.8% | viability, T/C [30]: 56.8% | viability, T/C [31]: 92% | viability, T/C [32]: 79.9% | viability, T/C [33]: 80% | viability, T/C [34]: 74.2% | viability, T/C [35]: 82.5% | viability, T/C [36]: 54.4%

CCc1cc2c(N3CCc4c(cc(Cn5ccnc5)cc4-c4cn(C)nc4C(F)(F)F)C3=O)ccnc2c(OC)n1 + Nc1ccc(C#CCN(C(=O)Cc2ncc(C(F)(F)F)cc2C(F)(F)F)c2ccc(F)cc2)nn1
IC50 (second compound 0.0316 µM): > 10 µM | IC50 (second compound 0.1 µM): > 10 µM | IC50 (second compound 0.316 µM): > 10 µM | IC50 (second compound 1 µM): > 10 µM | IC50 (second compound 3.16 µM): > 10 µM | IC50 (second compound 10 µM): > 10 µM | viability, T/C [1]: 91.6% | viability, T/C [2]: 90.2% | viability, T/C [3]: 82% | viability, T/C [4]: 86.8% | viability, T/C [5]: 64.7% | viability, T/C [6]: 61.6% | viability, T/C [7]: 107% | viability, T/C [8]: 100% | viability, T/C [9]: 81.5% | viability, T/C [10]: 77.1% | viability, T/C [11]: 88% | viability, T/C [12]: 61.6% | viability, T/C [13]: 101% | viability, T/C [14]: 100% | viability, T/C [15]: 96.6% | viability, T/C [16]: 82.3% | viability, T/C [17]: 72.9% | viability, T/C [18]: 61.5% | viability, T/C [19]: 96.6% | viability, T/C [20]: 99.3% | viability, T/C [21]: 94.4% | viability, T/C [22]: 72.2% | viability, T/C [23]: 88.4% | viability, T/C [24]: 58.2% | viability, T/C [25]: 94.5% | viability, T/C [26]: 90.9% | viability, T/C [27]: 96.7% | viability, T/C [28]: 80.1% | viability, T/C [29]: 82.7% | viability, T/C [30]: 56.8% | viability, T/C [31]: 83% | viability, T/C [32]: 76.6% | viability, T/C [33]: 75.8% | viability, T/C [34]: 73.5% | viability, T/C [35]: 80.2% | viability, T/C [36]: 55.9%

COc1cccc2c1C(=O)c1c(O)c3c(c(O)c1C2=O)CC(O)(C(=O)CO)CC3OC1CC(N)C(O)C(C)O1 (stereo not given) + Cc1cccc(N(C)C(=O)C2C(O)CCN2c2nc(C)cc(C(F)(F)F)c2C#N)c1
IC50 (second compound 0.0316 µM): 0.178 µM | IC50 (second compound 0.1 µM): 0.245 µM | IC50 (second compound 0.316 µM): 0.168 µM | IC50 (second compound 1 µM): 0.204 µM | IC50 (second compound 3.16 µM): 0.184 µM | IC50 (second compound 10 µM): 0.152 µM | viability, T/C [1]: 92.8% | viability, T/C [2]: 62.1% | viability, T/C [3]: 39.9% | viability, T/C [4]: 11% | viability, T/C [5]: 3.5% | viability, T/C [6]: 3.68% | viability, T/C [7]: 87.9% | viability, T/C [8]: 72.7% | viability, T/C [9]: 45.2% | viability, T/C [10]: 9.74% | viability, T/C [11]: 4.9% | viability, T/C [12]: 3.68% | viability, T/C [13]: 92.7% | viability, T/C [14]: 60.7% | viability, T/C [15]: 38.6% | viability, T/C [16]: 10.6% | viability, T/C [17]: 3.96% | viability, T/C [18]: 3.01% | viability, T/C [19]: 90.8% | viability, T/C [20]: 69.5% | viability, T/C [21]: 39.7% | viability, T/C [22]: 7.4% | viability, T/C [23]: 3.66% | viability, T/C [24]: 3.67% | viability, T/C [25]: 74.3% | viability, T/C [26]: 64% | viability, T/C [27]: 37.2% | viability, T/C [28]: 5.9% | viability, T/C [29]: 3.46% | viability, T/C [30]: 3.96% | viability, T/C [31]: 68.8% | viability, T/C [32]: 63.3% | viability, T/C [33]: 26.3% | viability, T/C [34]: 4.4% | viability, T/C [35]: 3.99% | viability, T/C [36]: 3.14%

O=C(c1cc(Cc2n[nH]c(=O)c3ccccc23)ccc1F)N1CCN(C(=O)C2CC2)CC1 + Nc1ccc(C#CCN(C(=O)Cc2ncc(C(F)(F)F)cc2C(F)(F)F)c2ccc(F)cc2)nn1
IC50 (second compound 0.0316 µM): > 10 µM | IC50 (second compound 0.1 µM): > 10 µM | IC50 (second compound 0.316 µM): > 10 µM | IC50 (second compound 1 µM): > 10 µM | IC50 (second compound 3.16 µM): > 10 µM | IC50 (second compound 10 µM): > 10 µM | viability, T/C [1]: 98.2% | viability, T/C [2]: 73.7% | viability, T/C [3]: 93.5% | viability, T/C [4]: 90% | viability, T/C [5]: 92.1% | viability, T/C [6]: 75.4% | viability, T/C [7]: 90.1% | viability, T/C [8]: 93.5% | viability, T/C [9]: 86.9% | viability, T/C [10]: 91.3% | viability, T/C [11]: 82.7% | viability, T/C [12]: 67.1% | viability, T/C [13]: 102% | viability, T/C [14]: 98% | viability, T/C [15]: 84% | viability, T/C [16]: 84.1% | viability, T/C [17]: 90.7% | viability, T/C [18]: 80.2% | viability, T/C [19]: 93.1% | viability, T/C [20]: 93.9% | viability, T/C [21]: 84.3% | viability, T/C [22]: 88.9% | viability, T/C [23]: 84.2% | viability, T/C [24]: 76.8% | viability, T/C [25]: 92.7% | viability, T/C [26]: 93.7% | viability, T/C [27]: 85.8% | viability, T/C [28]: 92.2% | viability, T/C [29]: 80.6% | viability, T/C [30]: 82.6% | viability, T/C [31]: 80.7% | viability, T/C [32]: 85.5% | viability, T/C [33]: 88% | viability, T/C [34]: 92.7% | viability, T/C [35]: 81.3% | viability, T/C [36]: 68.7%

CNCc1ccc(-c2[nH]c3cc(F)cc4c3c2CCNC4=O)cc1 + Cc1cccc(N(C)C(=O)C2C(O)CCN2c2nc(C)cc(C(F)(F)F)c2C#N)c1
IC50 (second compound 0.0316 µM): > 10 µM | IC50 (second compound 0.1 µM): > 10 µM | IC50 (second compound 0.316 µM): > 10 µM | IC50 (second compound 1 µM): > 10 µM | IC50 (second compound 3.16 µM): > 10 µM | IC50 (second compound 10 µM): > 10 µM | viability, T/C [1]: 76.6% | viability, T/C [2]: 84.1% | viability, T/C [3]: 75.3% | viability, T/C [4]: 91% | viability, T/C [5]: 79.4% | viability, T/C [6]: 79.2% | viability, T/C [7]: 84.7% | viability, T/C [8]: 77% | viability, T/C [9]: 95.7% | viability, T/C [10]: 73.5% | viability, T/C [11]: 87.3% | viability, T/C [12]: 64.5% | viability, T/C [13]: 85.3% | viability, T/C [14]: 98% | viability, T/C [15]: 82.6% | viability, T/C [16]: 90.2% | viability, T/C [17]: 77.3% | viability, T/C [18]: 69.7% | viability, T/C [19]: 68.9% | viability, T/C [20]: 87.2% | viability, T/C [21]: 95.7% | viability, T/C [22]: 82.4% | viability, T/C [23]: 94.6% | viability, T/C [24]: 64.3% | viability, T/C [25]: 79.8% | viability, T/C [26]: 83.4% | viability, T/C [27]: 83.6% | viability, T/C [28]: 85.2% | viability, T/C [29]: 87.5% | viability, T/C [30]: 72.9% | viability, T/C [31]: 82.5% | viability, T/C [32]: 76.9% | viability, T/C [33]: 76.9% | viability, T/C [34]: 90.5% | viability, T/C [35]: 88.3% | viability, T/C [36]: 74.9%
